Paper PMC5573404, “An aldo-keto reductase is responsible for Fusarium toxin-degrading activity in a soil Sphingomonas strain” (Scientific Reports, 2017)

Tested on: AKR18A1
Test: HPLC substrate decrease, Michaelis-Menten fit
Assay type: biochemical, Sphingomonas sp. S3-4
Conditions: 45 °C

SMILES	Km (reduction of 3-oxo-DON, sodium phosphate pH 7.0, printed unit mM is doubtful, probably a misprint for μM (assays use 0.2 mM NADH))	Km (oxidation of DON, glycine-NaOH pH 10.6)
NC(=O)C1=CN([C@@H]2O[C@H](COP(=O)(O)OP(=O)(O)OC[C@H]3O[C@@H](n4cnc5c(N)ncnc54)[C@H](O)[C@@H]3O)[C@@H](O)[C@H]2O)C=CC1 [NADH]	78 ± 28 mM	–
NC(=O)c1ccc[n+]([C@@H]2O[C@H](COP(=O)(O)OP(=O)(O)OC[C@H]3O[C@@H](n4cnc5c(N)ncnc54)[C@H](OP(=O)(O)O)[C@@H]3O)[C@@H](O)[C@H]2O)c1 [NADP^+]	–	0.48 ± 0.07 mM
